The numbers were not newly measured in US20200289431A1 (priority 2019, published 2020), which cites them from elsewhere.

Molecules are shown by their SMILES.

The target of data set [1] is cannabinoid CB2 receptor (Homo sapiens, UniProt P34972).
The conditions of data set [2]: in vivo.

cannabinoid CB2 receptor, sequence (P34972 whole entry): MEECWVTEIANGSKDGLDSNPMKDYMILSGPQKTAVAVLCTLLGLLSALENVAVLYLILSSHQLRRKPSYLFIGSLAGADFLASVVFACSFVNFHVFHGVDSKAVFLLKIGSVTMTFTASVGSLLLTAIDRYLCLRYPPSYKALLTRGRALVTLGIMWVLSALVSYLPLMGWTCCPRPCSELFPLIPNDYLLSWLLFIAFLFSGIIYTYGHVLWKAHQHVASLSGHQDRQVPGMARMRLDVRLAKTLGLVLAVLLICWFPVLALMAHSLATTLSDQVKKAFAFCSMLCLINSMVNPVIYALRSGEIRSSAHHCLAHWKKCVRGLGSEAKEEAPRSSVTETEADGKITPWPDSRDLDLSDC

For the compound `C=C(C)[C@@H]1CCC(C)=C[C@H]1c1c(O)cc(CCCCC)cc1O` [Cannabidiol], the “affinity for the cannabinoid CB2 receptor” value in data set [1] was “very low affinity”. Besides, the elimination half-life in data set [2] was 18 to 32 h.
